From the supplement of paper PMC10307832

What was measured:
Assay in all cases: relative viability (nuclei count vs DMSO), 5 days (fraction); higher = more cells survive
Bicalutamide + Foretinib = compound: CC(O)(CS(=O)(=O)c1ccc(F)cc1)C(=O)Nc1ccc(C#N)c(C(F)(F)F)c1 [Bicalutamide] + COc1cc2c(Oc3ccc(NC(=O)C4(C(=O)Nc5ccc(F)cc5)CC4)cc3F)ccnc2cc1OCCCN1CCOCC1 [Foretinib] (partner 0.25 µM)
Outline: (§1)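 Lung cancer cell lines, seeded in 1536-well plates, were treated the following day by pin tool with a single drug or with five library-drug doses (not always all listed) in √10 steps on top of a fixed anchor-drug dose. Cells were fixed and nuclei stained in one step after 5 days, and nuclei were counted. Relative viability is the nuclei count for treated wells divided by that for vehicle wells, reported as medians of duplicate plates.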

Bromopyruvate + AZD7762 = compound: C(C(=O)C(=O)O)Br [Bromopyruvate] + NC(=O)Nc1cc(-c2cccc(F)c2)sc1C(=O)N[C@H]1CCCNC1 [AZD7762] (partner 0.2 µM)
Outline: as §1

Bromopyruvate + Olaparib = compound: C(C(=O)C(=O)O)Br [Bromopyruvate] + O=C(c1cc(Cc2n[nH]c(=O)c3ccccc23)ccc1F)N1CCN(C(=O)C2CC2)CC1 [Olaparib] (partner 8 µM)
Outline: as §1

[1] = compound: CC(O)(CS(=O)(=O)c1ccc(F)cc1)C(=O)Nc1ccc(C#N)c(C(F)(F)F)c1 [Bicalutamide] + C[C@@H](Oc1cc(-c2cnn(C3CCNCC3)c2)cnc1N)c1c(Cl)ccc(F)c1Cl [Crizotinib] (partner 1 µM)
Outline: as §1

Cell Line	relative viability (Bicalutamide + Foretinib; first compound 0.08 µM)	relative viability (Bicalutamide + Foretinib; first compound 0.253 µM)	relative viability (Bicalutamide + Foretinib; first compound 0.8 µM)	relative viability (Bicalutamide + Foretinib; first compound 2.53 µM)	relative viability (Bromopyruvate + AZD7762; first compound 1 µM)	relative viability (Bromopyruvate + AZD7762; first compound 3.162 µM)	relative viability (Bromopyruvate + AZD7762; first compound 10 µM)	relative viability (Bromopyruvate + AZD7762; first compound 31.62 µM)	relative viability (Bromopyruvate + AZD7762; first compound 100 µM)	relative viability (Bromopyruvate + Olaparib; first compound 1 µM)	relative viability (Bromopyruvate + Olaparib; first compound 3.162 µM)	relative viability (Bromopyruvate + Olaparib; first compound 10 µM)	relative viability (Bromopyruvate + Olaparib; first compound 31.62 µM)	relative viability (Bromopyruvate + Olaparib; first compound 100 µM)	relative viability ([1]; first compound 0.08 µM)	relative viability ([1]; first compound 0.253 µM)	relative viability ([1]; first compound 0.8 µM)	relative viability ([1]; first compound 2.53 µM)
LOU-NH91	0.969	0.79	0.963	0.96	0.801	0.755	0.742	0.771	0.837	1	0.902	0.974	0.95	1.01	0.726	0.681	0.766	0.744
LU99A	0.773	0.815	0.892	0.578	0.318	0.364	0.346	0.362	0.341	0.267	0.237	0.241	0.26	0.134	0.65	0.451	0.602	0.362
LXF-289	0.955	0.91	0.939	0.985	1.07	1.12	1.08	1.07	1.26	1.13	1.03	1.1	1.15	1.04	0.815	0.79	0.797	0.807
NCI-H23	0.905	0.876	1.01	0.965	0.27	0.22	0.249	0.206	0.251	0.318	0.316	0.321	0.399	0.196	0.495	0.467	0.493	0.399
NCI-H322M	1.01	0.851	1.16	1.06	0.623	0.58	0.523	0.581	0.628	0.715	0.82	0.743	0.737	0.687	1.05	0.858	1.16	0.868
NCI-H358	0.767	0.565	0.958	0.73	0.656	0.578	0.609	0.505	0.555	0.591	0.687	0.628	0.565	0.535	0.831	0.616	0.44	0.399
NCI-H441	1.19	0.894	0.964	0.787	1.01	1.18	1.06	0.978	1.14	0.604	0.538	0.643	0.564	0.602	0.917		0.598	0.61
NCI-H460	1	1	1.17	0.963	0.676	0.698	0.721	0.565	0.621	0.457	0.404	0.469	0.397	0.462	0.896	0.798	1.28	0.825
NCI-H596	0.986	0.87	0.976	0.946	1.08	1.28	1.12	1.17	0.993	0.755	0.645	0.671	0.754	0.782	0.898	1.51	1.08	1.04
